From patent publication US20240016924A1, “NEW ADJUVANT TO IMPROVE THE INNATE IMMUNITY” (INSTITUT NATIONAL DE LA SANTÉ ET DE LA RECHERCHE MÉDICALE, priority 2020, published 2024)

Assays:
Format in all cases: cell-based, human
[1] = tested on: nasal RPMI cells; experiment: Quantitative RT-PCR for short and long form TSLP, nasal RPMI cells
Protocol: (§1) The expression of short and long form TSLP was quantified as described (Bjerkan, Schreurs et al. 2015, Dong, Hu et al. 2016). Briefly, total RNA was extracted using Trizol. Five hundred nanograms of RNA were treated with ezDNase Enzyme (Thermo Fisher) to remove genomic DNA, and reverse transcribed into cDNA using the kit SuperScript IV VILO Master Mix according to manufacturer instructions (Thermo Fisher). Quantitative PCR was performed using reported primers (Dong, Hu et al. 2016) and the PowerUp SYBR Green Master Mix according to manufacturer instructions (Thermo Fisher). Reactions were performed in triplicates, with glyceraldehyde-3-phosphate dehydrogenase (GAPDH) as the internal control. Amplification, data acquisition, and analysis were carried out using the LightCycler 480 Software (Roche, Mannheim, Germany). The levels of TSLP mRNA were normalized to the levels of GAPDH using the ΔCt method (Schmittgen and Livak 2008) and were presented as 2-ΔCt values.

[2] = tested on: nasal RPMI cells; experiment: Cytokines and chemokines quantification (Luminex), nasal RPMI cells; conditions: 125 μM, 24 hrs
Protocol: TSLP, IL-25/IL-17E, IL-33, IFN-γ, IL-10, IL-12/23p40, IL-4, IL-5, IL-6, IL-13, TNF-α, MMP-9, IL-8/CXCL8, […], MDC/CCL22, TARC/CCL17, APRIL and BAFF were measured in culture supernatants from indicated experiments with custom multiplex Luminex assays (Bio-techne) according to the manufacturer's instructions. Additionally, when indicated TSLP was measured in culture supernatants by enzyme-linked immunosorbent assay (ELISA) with a limit of detection of 8 pg/ml (Thermo Fisher) according to the manufacturer's instructions.
We next investigated whether, in addition to TSLP, P1 could stimulate epithelial secretion of additional immune factors prone to attract antigen presenting cells (APCs). […] Together with TSLP (Zhou, Xu et al. 2018), this set of immune factors could facilitate recruitment of APCs to the mucosal surface for initiation of an immune response, since CCL20 and CCL2 chemo-attract macrophages and immature dendritic cells (DCs), and MMP-9 degrades the extracellular matrix and facilitates the migration of immune cells in or out the epithelium. Treg cells have IgA-inducing functions and require RA, TGF-b1, IL-10, and TSLP from intestinal epithelial cells and DCs. So, we assumed IL-10 released from either EC or DC may contribute to IgA class switching (Gutzeit, Magri, et al. 2014).

[3] = tested on: primary HNECs; experiment: MicroRNA microarray analysis and miR qPCR after P1 stimulation
Protocol: Confluent HNECs in 12-well plate were stimulated with medium or P1 (clade B, 125 μM) for 6 hours, at 37° C. Total RNA was extracted using Trizol. Before analysis, lfTSLP RNA up-regulation was confirmed by qPCR as described above and RNA quality was assessed with Agilent 2100 bioanalyzer according to manufacturer instructions (Agilent Technologies). Three untreated and treated paired samples from three independent experiments were analyzed by GeneChip miRNA 4.0 arrays (Affymetrix, Thermo Fisher) containing probes for 2578 human mature microRNAs and 2025 pre-mature microRNAs (https://assets.thermofisher.com/TFS-Assets/LSG/brochures/miRNA_4-0_and_4-1_datasheet.pdf). Potential microRNA targets were analyzed with the Ingenuity Pathway Analysis (IPA) software (Qiagen).
The quantification and knockdown of microRNA were performed as previously described with some modifications (Zhou, Xu et al. 2018). Briefly, total RNA was purified using MinElute PCR Purification Kit (Qiagen), the expression level of miR-4485 was quantified with TaqMan Small RNA Assays (Thermo Fisher). Reactions were performed in triplicates, and U6 was used as endogenous control. In order to knockdown miR-4485, 70% confluent HNEC cells were transfected with anti-miR-4485 inhibitor (67 nM, Qiagen) or mock inhibitor (miSCRIPT inhibitor negative control, 67 nM, Qiagen) using Lipofectamine RNAiMAX (Invitrogen) as described by the manufacturer. 36 h after transfection, miR-4485 expression, when quantified as described above, was reduced by 50-60% in anti-miR-4485 transfected cells as compared to anti-miR control (n=3 independent experiments).

[4] = tested on: primary HNECs; experiment: Quantitative RT-PCR for short and long form TSLP, primary HNECs
Protocol: as §1

SQNQQEKNEQELLELDKWASLWNWFNITNWLWYIK [P1]
increase of lfTSLP transcription compared to unstimulated cells ([1]; p=0.02, n=5): 1.9 fold
level of the sfTSLP transcript ([1]; upon P1 stimulation): remains unchanged
secretion of MMP-9, CCL20, CCL2 and IL-10 [2]: selectively induced the secretion of MMP-9, CCL20, CCL2 and IL-10
miR-4485-3p increase, microRNA array ([3]; P1 125 μM, 6 hours): > 9 fold
number of differentially expressed microRNAs ([3]; P1 125 μM, 6 hours, microRNA array, p<0.05, 23 up-regulated, 16 down-regulated): 39
miR-375 expression ([3]; primary HNECs, P1 stimulation): not accompanied by a change in miR-375 expression
increase in miR-4485-3p expression, qPCR ([3]; upon P1 stimulation, n=4): 2.6±0.8 fold
increase of lfTSLP transcription compared to unstimulated cells ([4]; HNECs, p=0.004, n=6): 5.9 fold
level of the sfTSLP transcript ([4]; upon P1 stimulation, primary HNECs): remains unchanged
